Assay results from patent publication US10697960B2, “CXCR4 and ROBO1 expression as markers for autoimmune diabetes” (BOARD OF SUPERVISORS OR LOUISANA STATE UNIVERSITY AND …, priority 2012, dated 2020).
Entries after “also recorded” stand apart in the source; their conditions may differ. Square brackets hold non-standard residues; d marks the D form. Ends that are not written are not given here. Linker = not defined here

Tests used:
[1] = test system: adoptive transfer models in mice; conditions: cited from earlier work
[2] = test system: NOD/ShiLtJ T cells on TNFα-activated MS1 islet endothelial cells; assay: Parallel plate flow chamber T cell adhesion assay with SDF-1 peptide mimetic; type: cell-based, mouse; conditions: 150 mPa; for TNFα-induced firm adhesion of T cells (fold change in number of adherent cells): MS1 cells treated 10 minutes with mimetic at 200, 1000 or 5000 ng/ml after 10 ng/ml TNFα, versus TNFα alone
Description: Hydrodynamic flow chamber assays were performed as otherwise described in C. Sharp et al. (2008). Briefly, T cells isolated as described above were labeled with CellTracker Green (C7025; Life Technologies, Carlsbad, Calif., USA), rinsed, and resuspended at a concentration of 2×10^6 cells/ml in phenol red-free Hanks' balanced salt solution (HBSS). The cells were placed in a beaker that had been previously coated with Sigmacote (Sigma-Aldrich), kept at 37° C., and stirred at 60 rev/min. A flow chamber insert and gasket with a 0.5 cm flow width and 250 μm thickness (GlycoTech, Gaithersburg, Md., USA) were used with 35 mm cell culture dishes containing confluent MS1 cell cultures to form a parallel plate flow chamber. To activate endothelial cells, MS1 cells were treated for 4 to 6 hours at 37° C. with 10 ng/ml recombinant mouse TNFα (T7539; Sigma).
For the SDF-1 peptide mimetic T cell adhesion assay, MS1 cells were rinsed with HBSS and treated for 10 minutes with an SDF-1 peptide mimetic (AYWKENKEQ with two branched lysines as a linker between the two motifs, SEQ ID NO 1) at […]. This peptide was a linearized version of a cyclized SDF-1 analogue reported by Tudan et al., “C-terminal cyclization of an SDF-1 small peptide analogue dramatically increases receptor affinity and activation of CXCR4 receptor,” J. Med. Chem., vol. 45, pp. 2024-31 (2002). T cells were pumped through polypropylene tubing by a syringe pump (KD Scientific, Holliston, Mass., USA) across the endothelial monolayer at a physiological shear stress of 150 mPa. Real-time digital video images (minimum 28 frames/second) were captured with an epifluorescence microscope (TE-2000 Eclipse; Nikon, Tokyo, Japan) and digital camera (Model C4742-95-12ER: Hamamatsu Photonics, Hamamatsu, Japan). Simple PCI software (Hamamatsu Photonics) was used to analyze the video and to measure T cell rolling velocities. Cells were considered firmly adherent if they remained stationary for 10 seconds within the field of view. A minimum of three videos per plate and four plates per condition were used for analysis.
We examined whether a linear SDF-1 peptide mimetic containing the receptor-binding site could replicate the effect of full length SDF-1 in blocking adhesion of T cells to activated endothelium. MS1 cells were treated for 4 hours with 10 ng/ml TNFα, followed by treatment for 10 minutes with an SDF-1 peptide mimetic at 200, 1000, or 5000 ng/ml. Cells were then tested in a parallel plate flow chamber cell adhesion assay. Fluorescently labeled T cells obtained from NOD/ShiLtJ mice flowed over the endothelial monolayers at 150 mPa. […] Leucocyte adhesion videos were analyzed to calculate T cell rolling velocity and to determine whether the decrease in firm adhesion was due to a decreased number of rolling cells.

NOD/LtSz Rag1^−/− mice = assay: Diabetes adoptive transfer of diabetogenic splenocytes; type: in vivo, mouse; conditions: for blood glucose levels compared with PBS treatment: 4 to 5 weeks post-transfer
Description: Single cell suspensions of splenocytes were isolated from spleens of spontaneously diabetic female NOD/ShiLtJ mice as otherwise described in J. Glawe et al. (2009) Genetic deficiency of Itgb2 or ItgaL prevents autoimmune diabetes through distinctly different mechanisms in NOD/LtJ mice. Diabetes 58: 1292-1301, Erythrocytes were lysed with 150 mM NH4Cl, 1.0 mM/l KHCO3, and 0.1 mM disodium EDTA, and then resuspended in PBS at 200×10^6 splenocytes per ml. Female NOD/LtSz Rag1^−/− mice were injected retro-orbitally with 20×10^6 splenocytes.
The recipient mice were then injected retro-orbitally, either once or three times per week, with the SDF-1 peptide mimetic CTCE-0214 (SEQ ID NO. 2, KPVSLSYRCPCRFF-Linker-LKWIQEYLEKALN-OH) (British Canadian BioSciences, Vancouver, BC, Canada) at 1 or 10 mg/kg, or with PBS. See K Li, et al., “Small peptide analogue of SDF-1a supports survival of cord blood CD34+ cells in synergy with other cytokines and enhances their ex vivo expansion and engraftment into nonobese diabetic/severe combined immunodeficient mice,” Stem Cells, vol, 24, pp. 56-64 (2006); R. Zhong et al., “Small peptide analogs to stromal derived factor 1 enhance chemotactic migration of human and mouse hematopoietic cells,” Experimental Hematology, vol 32, pp. 470-475 (2004); A. Faber at al., “The many facets of SDF-1, CXCR4 agonists and antagonists on hematopoietic progenitor cells,” Journal of Biomedicine and Biotechnology, Article ID 26065; doi: 10.1155/200726065 (2007). Blood glucose was measured twice per week via a tail stick assay (Ascensia Glucometer Elite; Bayer, Leverkusen, Germany). Mice were considered hyperglycaemic following two consecutive measurements at 13.9 mM (250 mg/dl) glucose. Another SDF-1 mimetic that could be used is the CTCE-9908 peptide disclosed by A. Faber at al. (2007).

CD34^+ cells = conditions: at much higher concentrations than SDF-1; cited from earlier work
[3] = test system: NOD/ShiLtJ T cells on VCAM-1- and ICAM-1-coated plates; assay: SLIT2 T cell detachment assay on VCAM-1- and ICAM-1-coated plates; type: cell-based, mouse; conditions: SDF-1 plus 20 μg/ml SLIT2 versus SDF-1 alone
Description: T cell detachment assays were performed as otherwise described in C. Sharp et al. (2008). T cells were injected into the tubing via an inlet port upstream of the flow chamber at a concentration of 2×10^6 cells/ml and allowed to firmly adhere under static conditions for 15 minutes. Next, shear stress was initiated and increased in a step-wise manner every 30 seconds as follows: 35, 56, 91, 224, 504, and 980 mPa. The assay was recorded by video, which was analyzed to determine the percentage of cells detached at the end of each shear stress interval. For the anti-ROBO1 detachment assay, MS1 cells were treated for […] at 37° C. with TNFα as described above and then with 100 ng/ml recombinant mouse SDF-1α (460-SD; R&D Systems). T cells were pre-treated for 30 minutes at 37° C. with 20 μg/ml ROBO1 blocking antibody (GT15144; Neuromics, Edina, Minn., USA) or isotype control (GT15900; Neuromics).
For the SLIT2 detachment assay, the following modifications were made. Vascular cell adhesion molecule 1 (VCAM-1)- and intercellular cell adhesion molecule 1 (ICAM-1)-coated plates were substituted for confluent monolayers of MS1 cells to isolate the specific ligand and receptor interactions involved. Plates were treated by tracing five 5 mm diameter circles aligned in one row in the center of a 100 mm diameter tissue culture dish using a PAP pen, and then applying 15 μl of 1 mg/ml protein A to each circle for 30 minutes. Plates were rinsed twice with PBS and blocked for 30 minutes with 5% (wt/vol) BSA in PBS. Plates were rinsed and each circle was then treated for 30 minutes with 15 μl of a solution containing 5 μg/ml ICAM-1/Fc chimera (796-IC; R&D Systems) and 5 μg/ml VCAM-1/Fc chimera (643-VM; R&D Systems), or PBS (control). Plates were rinsed and stored at 4° C. T cells were suspended in HBSS containing, 10 μg/ml heparin sodium and treated for 15 minutes at 37° C. with 250 ng/ml SDF-1 and 20 μg/ml recombinant mouse SLIT2 (5444-SL; R&D Systems) before use. A Glycotech rectangular flow chamber with a 250 μm thick gasket and a 1 cm wide flow path was used. […]

c1cc(CN2CCCNCCNCCCNCC2)ccc1CN1CCCNCCNCCCNCC1 [AMD3100]
development of diabetes ([1]; disruption of SDF-1-CXCR4 binding): accelerate the development of diabetes | beta cell apoptosis ([1]; mouse, in vivo): induce beta cell apoptosis

AYWKENKEQ with two branched lysines as a linker between the two motifs (also: two branched lysines as a linker between the two motifs) [SDF-1 peptide mimetic, linearized version of a cyclized SDF-1 analogue reported by Tudan et al]
TNFα-induced firm adhesion of T cells (fold change in number of adherent cells) [2]: prevented NOD T cell adhesion; also recorded: significantly reduced; also recorded: reversed | number of rolling cells ([2]; TNFα-treated MS1 cells, data not shown): did not decrease | T cell rolling velocity ([2]; TNFα-treated endothelial cells, versus control): did not significantly affect

KPVSLSYRCPCRFF-Linker-LKWIQEYLEKALN-OH (KPVSLSYRCPCRFF[Linker]LKWIQEYLEKALN-OH; cysteine pairing not given here; reading uncertain; also: printed as KPVSLSYRCPCRFF-Linker-LKWIQEYLEKALN-OH) [CTCE-0214, 2, small peptide CXCR4 agonist from British Canadian BioSciences]
TNFα-induced firm adhesion of T cells (fold change in number of adherent cells) [2]: can reduce | progression of autoimmune diabetes (NOD/LtSz Rag1^−/− mice; 1 mg/kg): almost no effect | blood glucose levels compared with PBS treatment (NOD/LtSz Rag1^−/− mice; 1 mg/kg three times per week): not | blood glucose levels compared with PBS-treated mice (NOD/LtSz Rag1^−/− mice; 10 mg/kg once per week, retro-orbital, 5.5 and 6 weeks post-transfer): significantly reduced glucose levels | development of hyperglycaemia compared with PBS treatment (NOD/LtSz Rag1^−/− mice; 10 mg/kg one time per week): delayed development of hyperglycaemia | development of hyperglycaemia compared with PBS treatment (NOD/LtSz Rag1^−/− mice; 10 mg/kg three times per week): delayed development of hyperglycaemia | blood glucose levels compared with PBS treatment (NOD/LtSz Rag1^−/− mice; 10 mg/kg three times per week): significantly reduced glucose levels | adoptive transfer / progression of autoimmune diabetes, onset of hyperglycaemia (NOD/LtSz Rag1^−/− mice; 10 mg/kg where a dose is stated): significantly delayed the onset of hyperglycaemia; also recorded: therapeutically beneficial; also recorded: effectively delayed adoptive transfer of diabetes; also recorded: slowed the development of diabetes | effect of dosing frequency on incidence of hyperglycaemia (NOD/LtSz Rag1^−/− mice; once per week versus three times per week): better reduction in the incidence of hyperglycaemia at a dosing of once per week; also recorded: more beneficial effect at once-a-week dosing | migration of CD34^+ cells (CD34^+ cells): increases migration

B1: SLIT2: recombinant mouse SLIT2 (5444-SL; R&D Systems), ligand of ROBO1 (protein)
chain: QACPAQCSCSGSTVDCHGLALRSVPRNIPRNTERLDLNGNNITRITKIDFAGLRHLRVLQLMENRISTIERGAFQDLKELERLRLNRNNLQLFPELLFLGTAKLYRLDLSENQIQAIPRKAFRGAVDIKNLQLDYNQISCIEDGAFRALRDLEVLTLNNNNITRLSVASFNHMPKLRTFRLHSNNLYCDCHLAWLSDWLRQRPRVGLYTQCMGPSHLRGHNVAEVQKREFVCSGHQSFMAPSCSVLHCPAACTCSNNIVDCRGKGLTEIPTNLPETITEIRLEQNSIRVIPPGAFSPYKKLRRLDLSNNQISELAPDAFQGLRSLNSLVLYGNKITELPKSLFEGLFSLQLLLLNANKINCLRVDAFQDLHNLNLLSLYDNKLQTVAKGTFSALRAIQTMHLAQNPFICDCHLKWLADYLHTNPIETSGARCTSPRRLANKRIGQIKSKKFRCSGTEDYRSKLSGDCFADLACPEKCRCEGTTVDCSNQRLNKIPDHIPQYTAELRLNNNEFTVLEATGIFKKLPQLRKINFSNNKITDIEEGAFEGASGVNEILLTSNRLENVQHKMFKGLESLKTLMLRSNRISCVGNDSFIGLGSVRLLSLYDNQITTVAPGAFDSLHSLSTLNLLANPFNCNCHLAWLGEWLRRKRIVTGNPRCQKPYFLKEIPIQDVAIQDFTCDDGNDDNSCSPLSRCPSECTCLDTVVRCSNKGLKVLPKGIPKDVTELYLDGNQFTLVPKELSNYKHLTLIDLSNNRISTLSNQSFSNMTQLLTLILSYNRLRCIPPRTFDGLKSLRLLSLHGNDISVVPEGAFNDLSALSHLAIGANPLYCDCNMQWLSDWVKSEYKEPGIARCAGPGEMADKLLLTTPSKKFTCQ
shear-mediated T cell detachment from VCAM-1- and ICAM-1-coated plates [3]: significant increase in detachment; also recorded: promoted detachment | shear-mediated T cell detachment from VCAM-1- and ICAM-1-coated plates ([3]; listed as Slit-2 peptide containing the LRR domain 2): stimulated detachment | shear-mediated T cell detachment from VCAM-1- and ICAM-1-coated plates ([3]; listed as recombinant SLIT2): reversed
